Assay results published in ChEMBL document CHEMBL3608278 (J Med Chem, 2015).

What was measured:
[1] = target: T1, Potassium voltage-gated channel subfamily A member 3 (Homo sapiens, UniProt P22001); parameters: species or system Blood
[2] = target: T1, Potassium voltage-gated channel subfamily A member 3; type: cell-based, CHO-K1
[3] = target: T1, Potassium voltage-gated channel subfamily A member 3; experiment: cell-based; parameters: species or system Blood

T1 sequence (P22001 whole entry): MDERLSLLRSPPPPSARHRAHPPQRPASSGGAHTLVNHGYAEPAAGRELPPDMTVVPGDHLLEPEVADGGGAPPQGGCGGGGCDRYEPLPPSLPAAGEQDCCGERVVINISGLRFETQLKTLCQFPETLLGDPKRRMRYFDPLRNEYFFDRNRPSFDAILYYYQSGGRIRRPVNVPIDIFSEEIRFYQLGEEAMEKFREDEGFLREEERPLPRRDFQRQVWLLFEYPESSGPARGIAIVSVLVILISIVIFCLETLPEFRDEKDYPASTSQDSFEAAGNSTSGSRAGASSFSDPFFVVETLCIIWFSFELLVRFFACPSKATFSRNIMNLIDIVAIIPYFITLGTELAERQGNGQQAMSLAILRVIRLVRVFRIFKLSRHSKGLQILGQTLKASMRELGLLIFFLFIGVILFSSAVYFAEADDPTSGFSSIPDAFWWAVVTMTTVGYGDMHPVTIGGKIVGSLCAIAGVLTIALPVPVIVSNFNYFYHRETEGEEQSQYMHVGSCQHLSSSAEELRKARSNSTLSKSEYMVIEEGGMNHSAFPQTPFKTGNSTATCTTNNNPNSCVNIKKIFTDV

| SMILES | IC50 [1] [nM] | IC50 [2] [nM] | IC50 [3] [nM] |
| --- | --- | --- | --- |
| CC[C@H](C)[C@@H]1NC(=O)[C@@H](NC(=O)[C@H](CO)NC(=O)[C@@H](N)CCCNC(=N)N)CSSC[C@@H](C(=O)O)NC(=O)[C@H]([C@@H](C)O)NC(=O)CNC(=O)[C@@H]2CSSC[C@@H]3NC(=O)[C@H](CCC(N)=O)NC(=O)[C@H](Cc4ccccc4)NC(=O)[C@H](C)NC(=O)[C@H]([C@@H](C)O)NC(=O)[C@H](CSSC[C@H](NC(=O)[C@H](Cc4ccccc4)NC(=O)[C@H](CO)NC(=O)[C@H](CC(C)C)NC(=O)[C@H](CCCNC(=N)N)NC(=O)[C@H](Cc4ccc(O)cc4)NC(=O)[C@H](CCCCN)NC(=O)[C@H](CCSC)NC(=O)[C@H](CO)NC(=O)[C@H](Cc4cnc[nH]4)NC(=O)[C@H](CCCCN)NC3=O)C(=O)N[C@@H](CCCNC(=N)N)C(=O)N[C@@H](CCCCN)C(=O)N[C@@H]([C@@H](C)O)C(=O)N2)NC(=O)[C@H](CCCNC(=N)N)NC(=O)[C@H](CO)NC(=O)[C@H](CCCCN)NC(=O)[C@@H]2CCCN2C(=O)[C@H](Cc2cccc3ccccc23)NC(=O)[C@H]([C@@H](C)O)NC(=O)[C@H](CC(=O)O)NC1=O | 18 | > 3.33 | 11.6 |
| CC[C@H](C)[C@@H]1NC(=O)[C@@H](NC(=O)[C@H](CO)NC(=O)[C@@H](N)CCCNC(=N)N)CSSC[C@@H](C(=O)O)NC(=O)[C@H]([C@@H](C)O)NC(=O)CNC(=O)[C@@H]2CSSC[C@@H]3NC(=O)[C@H](Cc4cccc5ccccc45)NC(=O)[C@H](Cc4ccccc4)NC(=O)[C@H](C)NC(=O)[C@H]([C@@H](C)O)NC(=O)[C@H](CSSC[C@H](NC(=O)[C@H](Cc4ccccc4)NC(=O)[C@H](CO)NC(=O)[C@H](CC(C)C)NC(=O)[C@H](CCCNC(=N)N)NC(=O)[C@H](Cc4ccc(O)cc4)NC(=O)[C@H](CCCCN)NC(=O)[C@H](CCSC)NC(=O)[C@H](CO)NC(=O)[C@H](Cc4cnc[nH]4)NC(=O)[C@H](CCCCN)NC3=O)C(=O)N[C@@H](CCCNC(=N)N)C(=O)N[C@@H](CCCCN)C(=O)N[C@@H]([C@@H](C)O)C(=O)N2)NC(=O)[C@H](CCCNC(=N)N)NC(=O)[C@H](CO)NC(=O)[C@H](CCCCN)NC(=O)[C@@H]2CCCN2C(=O)[C@H]([C@@H](C)CC)NC(=O)[C@H]([C@@H](C)O)NC(=O)[C@H](CC(=O)O)NC1=O | 9.55 | 1.44 | 28.9 |
| CC[C@H](C)[C@@H]1NC(=O)[C@@H](NC(=O)[C@H](CO)NC(=O)[C@@H](N)CCCNC(=N)N)CSSC[C@@H](C(=O)O)NC(=O)[C@H]([C@@H](C)O)NC(=O)CNC(=O)[C@@H]2CSSC[C@@H]3NC(=O)[C@H](CCC(N)=O)NC(=O)[C@H](Cc4ccccc4)NC(=O)[C@H](C)NC(=O)[C@H]([C@@H](C)O)NC(=O)[C@H](CSSC[C@H](NC(=O)[C@H](Cc4ccccc4)NC(=O)[C@H](CO)NC(=O)[C@H](CC(C)C)NC(=O)[C@H](CCCNC(=N)N)NC(=O)[C@H](Cc4ccc(O)cc4)NC(=O)[C@H](CCCCN)NC(=O)[C@H](CCSC)NC(=O)[C@H](Cc4cccc5ccccc45)NC(=O)[C@H](Cc4cnc[nH]4)NC(=O)[C@H](CCCCN)NC3=O)C(=O)N[C@@H](CCCNC(=N)N)C(=O)N[C@@H](CCCCN)C(=O)N[C@@H]([C@@H](C)O)C(=O)N2)NC(=O)[C@H](CCCNC(=N)N)NC(=O)[C@H](CO)NC(=O)[C@H](CCCCN)NC(=O)[C@@H]2CCCN2C(=O)[C@H]([C@@H](C)CC)NC(=O)[C@H]([C@@H](C)O)NC(=O)[C@H](CC(=O)O)NC1=O | > 100 | > 3.33 | > 100 |
| CC[C@H](C)[C@@H]1NC(=O)[C@@H](NC(=O)[C@H](CO)NC(=O)[C@@H](N)CCCNC(=N)N)CSSC[C@@H](C(=O)O)NC(=O)[C@H]([C@@H](C)O)NC(=O)CNC(=O)[C@@H]2CSSC[C@@H]3NC(=O)[C@H](CCC(N)=O)NC(=O)[C@H](Cc4ccccc4)NC(=O)[C@H](C)NC(=O)[C@H]([C@@H](C)O)NC(=O)[C@H](CSSC[C@H](NC(=O)[C@H](Cc4cccc5ccccc45)NC(=O)[C@H](CO)NC(=O)[C@H](CC(C)C)NC(=O)[C@H](CCCNC(=N)N)NC(=O)[C@H](Cc4ccc(O)cc4)NC(=O)[C@H](CCCCN)NC(=O)[C@H](CCSC)NC(=O)[C@H](CO)NC(=O)[C@H](Cc4cnc[nH]4)NC(=O)[C@H](CCCCN)NC3=O)C(=O)N[C@@H](CCCNC(=N)N)C(=O)N[C@@H](CCCCN)C(=O)N[C@@H]([C@@H](C)O)C(=O)N2)NC(=O)[C@H](CCCNC(=N)N)NC(=O)[C@H](CO)NC(=O)[C@H](CCCCN)NC(=O)[C@@H]2CCCN2C(=O)[C@H]([C@@H](C)CC)NC(=O)[C@H]([C@@H](C)O)NC(=O)[C@H](CC(=O)O)NC1=O | 2.84 | 0.223 | 1.07 |
| CC[C@H](C)[C@@H]1NC(=O)[C@@H](NC(=O)[C@H](CO)NC(=O)[C@@H](N)CCC(=O)O)CSSC[C@@H](C(=O)O)NC(=O)[C@H]([C@@H](C)O)NC(=O)CNC(=O)[C@@H]2CSSC[C@@H]3NC(=O)[C@H](CCC(N)=O)NC(=O)[C@H](Cc4ccccc4)NC(=O)[C@H](C)NC(=O)[C@H]([C@@H](C)O)NC(=O)[C@H](CSSC[C@H](NC(=O)[C@H](Cc4ccccc4)NC(=O)[C@H](CO)NC(=O)[C@H](CC(C)C)NC(=O)[C@H](CCCNC(=N)N)NC(=O)[C@H](Cc4ccc(O)cc4)NC(=O)[C@H](CCCCN)NC(=O)[C@H](CCSC)NC(=O)[C@H](CO)NC(=O)[C@H](Cc4cnc[nH]4)NC(=O)[C@H](CCCCN)NC3=O)C(=O)N[C@@H](CCCNC(=N)N)C(=O)N[C@@H](CCCCN)C(=O)N[C@@H]([C@@H](C)O)C(=O)N2)NC(=O)[C@H](CCCNC(=N)N)NC(=O)[C@H](CO)NC(=O)[C@H](CCCCN)NC(=O)[C@@H]2CCCN2C(=O)[C@H]([C@@H](C)CC)NC(=O)[C@H]([C@@H](C)O)NC(=O)[C@H](CC(=O)O)NC1=O | 0.249 | 0.151 | 0.214 |

Now from value to molecule:

| IC50 [1] [nM] | IC50 [2] [nM] | IC50 [3] [nM] | SMILES |
| --- | --- | --- | --- |
| 8.13 | 0.853 | 6.59 | CC[C@H](C)[C@@H]1NC(=O)[C@@H](NC(=O)[C@H](CO)NC(=O)[C@@H](N)CCCNC(=N)N)CSSC[C@@H](C(=O)O)NC(=O)[C@H]([C@@H](C)O)NC(=O)CNC(=O)[C@@H]2CSSC[C@@H]3NC(=O)[C@H](CCC(N)=O)NC(=O)[C@H](Cc4ccccc4)NC(=O)[C@H](C)NC(=O)[C@H]([C@@H](C)O)NC(=O)[C@H](CSSC[C@H](NC(=O)[C@H](Cc4ccccc4)NC(=O)[C@H](CO)NC(=O)[C@H](CC(C)C)NC(=O)[C@H](CCCNC(=N)N)NC(=O)[C@H](Cc4ccc(O)cc4)NC(=O)[C@H](CCCCN)NC(=O)[C@H](Cc4cccc5ccccc45)NC(=O)[C@H](CO)NC(=O)[C@H](Cc4cnc[nH]4)NC(=O)[C@H](CCCCN)NC3=O)C(=O)N[C@@H](CCCNC(=N)N)C(=O)N[C@@H](CCCCN)C(=O)N[C@@H]([C@@H](C)O)C(=O)N2)NC(=O)[C@H](CCCNC(=N)N)NC(=O)[C@H](CO)NC(=O)[C@H](CCCCN)NC(=O)[C@@H]2CCCN2C(=O)[C@H]([C@@H](C)CC)NC(=O)[C@H]([C@@H](C)O)NC(=O)[C@H](CC(=O)O)NC1=O |
| > 100 | > 3.33 | > 100 | CC[C@H](C)[C@@H]1NC(=O)[C@@H](NC(=O)[C@H](CO)NC(=O)[C@@H](N)CCCNC(=N)N)CSSC[C@@H](C(=O)O)NC(=O)[C@H]([C@@H](C)O)NC(=O)CNC(=O)[C@@H]2CSSC[C@@H]3NC(=O)[C@H](CCC(N)=O)NC(=O)[C@H](Cc4ccccc4)NC(=O)[C@H](C)NC(=O)[C@H]([C@@H](C)O)NC(=O)[C@H](CSSC[C@H](NC(=O)[C@H](Cc4ccccc4)NC(=O)[C@H](CO)NC(=O)[C@H](CC(C)C)NC(=O)[C@H](CCCNC(=N)N)NC(=O)[C@H](Cc4ccc(O)cc4)NC(=O)[C@H](Cc4cccc5ccccc45)NC(=O)[C@H](CCSC)NC(=O)[C@H](CO)NC(=O)[C@H](Cc4cnc[nH]4)NC(=O)[C@H](CCCCN)NC3=O)C(=O)N[C@@H](CCCNC(=N)N)C(=O)N[C@@H](CCCCN)C(=O)N[C@@H]([C@@H](C)O)C(=O)N2)NC(=O)[C@H](CCCNC(=N)N)NC(=O)[C@H](CO)NC(=O)[C@H](CCCCN)NC(=O)[C@@H]2CCCN2C(=O)[C@H]([C@@H](C)CC)NC(=O)[C@H]([C@@H](C)O)NC(=O)[C@H](CC(=O)O)NC1=O |
| 0.084 | 0.103 | 0.061 | CC[C@H](C)[C@@H]1NC(=O)[C@@H](NC(=O)[C@H](CO)NC(=O)[C@@H](N)CCCNC(=N)N)CSSC[C@@H](C(=O)O)NC(=O)[C@H]([C@@H](C)O)NC(=O)CNC(=O)[C@@H]2CSSC[C@@H]3NC(=O)[C@H](CCC(N)=O)NC(=O)[C@H](Cc4ccccc4)NC(=O)[C@H](C)NC(=O)[C@H]([C@@H](C)O)NC(=O)[C@H](CSSC[C@H](NC(=O)[C@H](Cc4ccccc4)NC(=O)[C@H](CO)NC(=O)[C@H](Cc4cccc5ccccc45)NC(=O)[C@H](CCCNC(=N)N)NC(=O)[C@H](Cc4ccc(O)cc4)NC(=O)[C@H](CCCCN)NC(=O)[C@H](CCSC)NC(=O)[C@H](CO)NC(=O)[C@H](Cc4cnc[nH]4)NC(=O)[C@H](CCCCN)NC3=O)C(=O)N[C@@H](CCCNC(=N)N)C(=O)N[C@@H](CCCCN)C(=O)N[C@@H]([C@@H](C)O)C(=O)N2)NC(=O)[C@H](CCCNC(=N)N)NC(=O)[C@H](CO)NC(=O)[C@H](CCCCN)NC(=O)[C@@H]2CCCN2C(=O)[C@H]([C@@H](C)CC)NC(=O)[C@H]([C@@H](C)O)NC(=O)[C@H](CC(=O)O)NC1=O |
| 8.08 | > 3.33 | 4.72 | CC[C@H](C)[C@@H]1NC(=O)[C@@H](NC(=O)[C@H](CO)NC(=O)[C@@H](N)CCCNC(=N)N)CSSC[C@@H](C(=O)O)NC(=O)[C@H]([C@@H](C)O)NC(=O)CNC(=O)[C@@H]2CSSC[C@@H]3NC(=O)[C@H](CCC(N)=O)NC(=O)[C@H](Cc4ccccc4)NC(=O)[C@H](C)NC(=O)[C@H]([C@@H](C)O)NC(=O)[C@H](CSSC[C@H](NC(=O)[C@H](Cc4ccccc4)NC(=O)[C@H](CO)NC(=O)[C@H](CC(C)C)NC(=O)[C@H](CCCNC(=N)N)NC(=O)[C@H](Cc4ccc(O)cc4)NC(=O)[C@H](CCCCN)NC(=O)[C@H](CCSC)NC(=O)[C@H](CO)NC(=O)[C@H](Cc4cnc[nH]4)NC(=O)[C@H](CCCCN)NC3=O)C(=O)N[C@@H](Cc3cccc4ccccc34)C(=O)N[C@@H](CCCCN)C(=O)N[C@@H]([C@@H](C)O)C(=O)N2)NC(=O)[C@H](CCCNC(=N)N)NC(=O)[C@H](CO)NC(=O)[C@H](CCCCN)NC(=O)[C@@H]2CCCN2C(=O)[C@H]([C@@H](C)CC)NC(=O)[C@H]([C@@H](C)O)NC(=O)[C@H](CC(=O)O)NC1=O |
